Reference: patent US12403184B2, “Compositions and methods for treating neurodegenerative disroders” (priority 2018, dated 2025)
Where no end group is shown, it is not given here.

What was measured:
Drp1 = Drp1 mitochondrial level and Drp1 oligomerization in striatum of treated HD mice; assay type: in vivo, mouse; settings: for Drp1 translocation to the mitochondria: 1 mg/kg/day
Method: Cells were washed with cold phosphate-buffered saline (PBS) and incubated on ice in mitochondrial lysis buffer (250 mM sucrose, 20 mM HEPES-NaOH, pH 7.5, 10 mM KCl, 1.5 mM MgCl2, 1 mM EDTA, 1 mM EGTA, protease inhibitor cocktail, and phosphatase inhibitor cocktail) for 30 min. The cells were scraped and then disrupted 15 times by repeated aspiration through a 25-gauge needle. Mouse brains were minced and homogenized in mitochondrial lysis buffer to release mitochondria. The homogenates were spun at 800×g for 10 min at 4° C., and the resulting supernatants were spun at 12,000×g for 20 min at 4° C. The pellets were washed with lysis buffer and spun at 12,000×g again for 20 min at 4° C. The final pellets were suspended in lysis buffer containing 1% Triton X-100 and were mitochondrial-rich lysate fractions. The mitochondrial protein voltage-dependent anion channel (VDAC) was used as a loading control.
Protein concentration was measured by protein assay dye reagents (Bio-rad). The protein was resuspended in Laemmli buffer, loaded on SDS-PAGE, and transferred onto nitrocellulose membranes. Membranes were probed with the indicated antibodies, followed by visualization with ECL. Representative blots have been cropped for presentation.
Systemic peptide treatment in HD mice. All randomization and peptide treatments were prepared by an experimenter not associated with behavioral and neuropathology analysis. Male R6/2 mice (Tg) and their age-matched wild-type littermates (Wt) (6-week-old) were implanted with a 28-day osmotic pump (Alzet, Cupertino CA, Model 2004) containing TAT control peptide or DA1 peptide, which delivered peptides at a rate of 1 mg/kg/day. Male YAC128 mice (Tg) and their age-matched wild-type littermates (WT) were treated with TAT control peptide or DA1 peptide (1 mg/kg/day) by Alzet osmotic pump starting from the age of 3 months. The pump was replaced once every month.

Drp1/ATAD3A = molecular target: T1, Drp1/ATAD3A (Mus musculus, UniProt Q925I1); experiment: Immunoprecipitation of Drp1/ATAD3A binding in mouse striatal cells; assay type: cell-based
T1 construct: The total lysates of cells or mouse striatum were subject to IP analysis; endogenous in cells; host or cells: HdhQ7 / HdhQ111 mouse striatal cells; wild-type mouse striatal cells exposed to 3-NP
T1 sequence (Q925I1 2-591 limits assumed): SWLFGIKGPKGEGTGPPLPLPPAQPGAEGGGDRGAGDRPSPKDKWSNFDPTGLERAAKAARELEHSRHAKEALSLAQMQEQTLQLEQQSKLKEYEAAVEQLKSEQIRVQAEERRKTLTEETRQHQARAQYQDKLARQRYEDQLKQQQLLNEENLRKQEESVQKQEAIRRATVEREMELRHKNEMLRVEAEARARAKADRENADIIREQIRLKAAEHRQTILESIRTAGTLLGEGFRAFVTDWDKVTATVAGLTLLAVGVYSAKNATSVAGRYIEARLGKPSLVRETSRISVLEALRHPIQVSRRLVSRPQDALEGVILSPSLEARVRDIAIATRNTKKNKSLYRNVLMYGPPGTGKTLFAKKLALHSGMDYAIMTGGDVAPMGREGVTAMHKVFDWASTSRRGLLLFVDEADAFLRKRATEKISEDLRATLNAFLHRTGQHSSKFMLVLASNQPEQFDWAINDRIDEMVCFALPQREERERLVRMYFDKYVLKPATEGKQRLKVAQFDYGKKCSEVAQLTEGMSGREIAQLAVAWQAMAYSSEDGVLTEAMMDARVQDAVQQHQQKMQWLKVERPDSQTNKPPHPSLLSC
Method: Cells and mouse brain tissues were harvested and lysed in total lysis buffer ([…], pH 7.9, […], […], 1% Triton X-100, and protease inhibitor cocktail) for 30 mins on ice and centrifuged at 12,000×g for 10 min at 4° C. The supernatants were incubated with the indicated primary antibodies or control IgG (sc-2025 and sc-2027, Santa Cruz Biotechnology) overnight at 4° C., followed by incubation with protein A/G beads (sc-2003, Santa Cruz Biotechnology) for 2 h at 4° C. The immunoprecipitates were washed with lysis buffer three times for a total of 30 min and then subject to WB analysis.

HdhQ111 cells = experiment: Mitochondrial superoxide production (MitoSOX) in striatal cells; assay type: cell-based, mouse; settings: relative to TAT
Method: To examine mitochondrial superoxide production, the cells were stained with MitoSOX (Invitrogen, 5 μM for 10 min) at 37° C. The cells were then washed with PBS three times and mounted for the image analysis. At least 150 cells/group were counted and quantitated.

wildtype mice = experiment: Tolerability of DA1 treatment in wildtype mice; assay type: in vivo, mouse
Method: Systemic peptide treatment in HD mice. All randomization and peptide treatments were prepared by an experimenter not associated with behavioral and neuropathology analysis. […] […] The pump was replaced once every month.
The body weight and survival rate of HD mice and wild-type littermates were recorded throughout the study period.

[1] = 1 mg/kg/day for 30 days, Alzet mini pumps, vs saline

“YGRKKRRQRRRGGEDKRKT-NH2 [DA1, YGRKKRRQRRR-GG-EDKRKT-NH2]” was tested, and the “Drp1 translocation to the mitochondria” value (Drp1; striatum of HD R6/2 mice) was “abrogated”, the Drp1 polymerization (Drp1; striatum of HD R6/2 mice, 12 weeks old) was “abrogated” and the “Drp1 translocation to the mitochondria” value (Drp1; striatum of HD YAC128 mice) was “abrogated”. For the same substance, the Drp1 polymerization (Drp1; striatum of HD YAC128 mice, 12 months old) was “abrogated”, the “binding of Drp1/ATAD3A” value (Drp1/ATAD3A; HdhQ111 cells, peptide 1 μM/day for 4 days, vs TAT) was “significantly reduced” and the “binding of Drp1/ATAD3A” value (Drp1/ATAD3A; wildtype mouse striatal cells exposed to 3-NP (5 mM for 4 hours), DA1 1 μM overnight) was “significantly reduced”. For the same substance, the “mitochondrial oxidative stress (mitoROS)” value (HdhQ111 cells) was “suppressed”, the lifespan (wildtype mice) was “no effect” and the “relative weight (spleen/body weight)” value (wildtype mice; [1]) was “no effects”. For the same substance, the spleen morphology (wildtype mice; [1]) was “no effects”, the “visible side effects in organs” value (wildtype mice; 1 mg/kg/day subcutaneously) was “did not cause” and the weight loss (wildtype mice; 1 mg/kg/day subcutaneously) was “did not cause”. The behavioral status (wildtype mice; sustained treatment) was “minor effects”.
